The experiment deals with Calpain-1 (Sus scrofa). The experiment is described as follows: In vitro inhibition of porcine erythrocyte calpain 1.

The structures appear in SMILES notation. pKi: −log10 of the molar value.

The source of these data is BindingDB's records for doi:10.1021/jm00044a013 (Alkermes, 1994).

`COC(=O)[C@H](C)NC(=O)C(=O)[C@@H](Cc1ccccc1)NC(=O)[C@H](CC(C)C)NC(=O)OCc1ccccc1` [(S)-2-[(R)-3-((S)-2-Benzyloxycarbonylamino-4-methyl-pentanoylamino)-2-oxo-4-phenyl-butyrylamino]-propionic acid methyl ester] showed a negative-log Ki (pKi) of 7.04.
To `CC(C)C[C@H](NC(=O)OCc1ccccc1)C(=O)N[C@H](Cc1ccccc1)C(=O)C(=O)N[C@@H](C)C(=O)O` [(S)-2-[(R)-3-((S)-2-Benzyloxycarbonylamino-4-methyl-pentanoylamino)-2-oxo-4-phenyl-butyrylamino]-propionic acid] belongs 6.14; to `CCNC(=O)C(O)[C@@H](Cc1ccccc1)NC(=O)[C@H](CC(C)C)NC(=O)OCc1ccccc1` (stereo partly drawn) [[(S)-1-((R)-1-Benzyl-2-ethylcarbamoyl-2-hydroxy-ethylcarbamoyl)-3-methyl-butyl]-carbamic acid benzyl ester], < 3.46.
